Reference: PMC12073635, “Synthesis of Tricyclic and Tetracyclic Lactone Derivatives of Thieno[2,3-b]pyrazine or Thieno[2,3-b]quinoline: Preliminary Antitumor and Antiparasitic Activity Evaluation” (Molecules, 2025)

Key:
[1] = test system: AGS (gastric adenocarcinoma) cells; assay: SRB cell growth inhibition assay, AGS; type: cell-based; settings: Homo sapiens, 72 h, mean ± standard deviation
Protocol: (§1) The antitumor potential of the Sonogashira coupling products 2, tricyclic lactones 3 and 5, and tetracyclic lactones 7 was evaluated using the sulforhodamine B (SRB) assay against five human tumor cell lines: colorectal adenocarcinoma (CaCo-2), breast adenocarcinoma (MCF-7), gastric adenocarcinoma (AGS), cervical carcinoma (HeLa), and non-small cell lung cancer (NCI-H460). A primary pig liver cell culture (PLP2) was used to assess the toxicity of compounds.
(§2) The human tumor cell lines used were CaCo-2 (colorectal adenocarcinoma), MCF-7 (breast adenocarcinoma), AGS (gastric adenocarcinoma), HeLa (cervical carcinoma), NCI-H460 (lung carcinoma). Non-tumor cell lines were also tested: PLP2 (primary pig liver culture). All the cell lines were maintained in RPMI-1640 medium supplemented with 10% fetal bovine serum, glutamine (2 mM), penicillin (100 U/mL), and streptomycin ([…]), with the exception of PLP2, which was maintained in DMEM medium supplemented with fetal bovine serum (10%), glutamine and antibiotics. The culture flasks were incubated at 37 °C and with 5% CO2, under a humid atmosphere. The cells were used only when they had 70 to 80% confluence. A known mass of each compound was dissolved in DMSO/H2O (1:1, 1 mL), in order to obtain the stock solutions with a concentration of 1 mM. […] Each compound concentration (10 μL) was incubated with the cell suspension (190 μL) of the cell lines tested in 96-well microplates for 72 h. The microplates were incubated at 37 °C and with 5% CO2 in a humid atmosphere after checking the adherence of the cells. All cell lines were tested at a concentration of 10,000 cells/well. After the incubation period, the cells were treated: TCA (10% w/v; 100 μL) was previously cooled, and plates were incubated for 1 h at 4 °C, washed with water, and, after drying, a SRB solution (0.057%, m/v; 100 μL) was added and left to stand at room temperature for 30 min. To remove non-adhered SRB, plates were washed three times with a solution of acetic acid (1% v/v) and placed to dry. Finally, an adhered SRB was solubilized with Tris (10 mM, 200 μL) and the absorbance at a wavelength of 540 nm was read in the Biotek ELX800 microplate reader. The results obtained by the SRB assay were expressed regarding the concentration compounds that can inhibit cell growth by 50%—GI50. Doxorubicin was used as a positive control.

[2] = test system: HeLa (cervical carcinoma) cells; assay: SRB cell growth inhibition assay, HeLa; type: cell-based; settings: Homo sapiens, 72 h, mean ± standard deviation
Protocol: as §1, §2

[3] = SRB assay, toxicity in non-tumor PLP2 cells; type: cell-based, pig; settings: PLP2 primary pig liver cells (non-tumor); non-tumor primary pig liver cells, SRB assay, 72 h, mean ± standard deviation
Protocol: as §1, §2

[4] = test system: PLP2 (primary pig liver cell culture); assay: SRB assay, toxicity in non-tumor PLP2 cells; type: cell-based; settings: at the GI50 concentrations
Protocol: as §1, §2

[5] = test system: T. brucei Lister 427 bloodstream forms; assay: Resazurin-based anti-T. brucei assay; type: cell-based, Trypanosoma brucei; settings: 72 h, dose-response; for IC50: Trypanosoma brucei
Protocol: The antiparasitic activity of compounds 2c–g, 3a, 5a and 7 was evaluated at a single concentration of 20 μM, against Trypanosoma brucei (T. brucei) and Leishmania infantum (L. infantum) promastigotes. The results are shown in Table 9 together with the cytotoxicity data (CC50) in THP-1–derived macrophages cells.
T. brucei Lister 427 bloodstream forms were grown in a humidified incubator at 37 °C, 5% CO2 in complete HMI-9 medium 1 supplemented with 10% heat-inactivated Fetal Bovine Serum (FBS) and 100 UI/mL penicillin/streptomycin. Parasites maintenance was performed in T25 ventilated flasks by subpassage at a concentration of 1 × 10^4/mL every 2 days on T25 ventilated flasks.
The efficacy of compounds against T. brucei bloodstream forms was evaluated using a modified resazurin-based assay previously described in the literature. Parasites were added to 100 µL of serial dilutions of compounds in supplemented complete medium at a cell density of 5 × 10^3/mL for. As a quality control, a dose–response curve for the antitrypanosomal pentamidine was included in all the assays. The final volume of the assay is 200 µL/well. Each condition was carried out in duplicate. Following 72 h incubation at the specific conditions for T. brucei, 20 µL of a 0.5 mM resazurin solution was added and plates were incubated for a further 4 h under the same conditions. Fluorescence was measured at 544 nm and 590 nm excitation and emission wavelength, respectively, using a Synergy 2 Multi-Mode Reader (Biotek, Winooski, VT, USA). Results were shown as % of parasite growth inhibition compared to control (untreated parasites) and represent the average of at least three independent experiments. The effect was evaluated by the determination of the IC50 value (concentration required to inhibit growth in 50%) and calculated by non-linear regression curves using GraphPad Prism version 8.1.1 for Windows (GraphPad Software, San Diego CA, USA).

[6] = MTT cytotoxicity in THP-1-derived macrophages; type: cell-based, human; settings: human, THP-1-derived macrophages (PMA-differentiated); MTT, 72 h, tested 100 to 12.5 μM; read-out: CC50 Interval in THP-1-Derived Macrophages
Procedure, shortened: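 THP-1 cells differentiated into macrophages with 40 ng/mL PMA for 24 h plus 24 h in fresh medium, then exposed to compounds at 100 to 12.5 μM for 72 h at 37 °C, 5% CO2. Viability by MTT (0.5 mg/mL, 4 h), absorbance 570 nm; CC50 by non-linear regression, at least three independent experiments.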

GI50 [1] [µM] | GI50 [2] [µM] | T. brucei IC50 [5] | IC50 [5] [µM] | SMILES | GI50 at 72 h [3] [µM] | toxicity in PLP2 cells (in words) [4] | CC50 at 72 h [6] [µM]
9.25 ± 0.61 | 5.44 ± 4.31 | low μM range | 6.43 | COC(=O)c1sc2nccnc2c1C#Cc1ccccn1 [Compound 2f, Methyl 7-(pyridin-2-ylethynyl)thieno[2,3-b]pyrazine-6-carboxylate] | 57.9 ± 4.31 | without significant toxicity | 25 to 100
42.6 ± 3.96 | 58.8 ± 2.44 | – | < 11 | O=c1oc(-c2ccccn2)cc2c1sc1nccnc12 [Compound 3f, 8-(Pyridin-2-yl)-6H-pyrano[4′,3′:4,5]thieno[2,3-b]pyrazin-6-one] | > 125 | low toxicity | –
